From ChEMBL document CHEMBL3751764, “Synthesis and in vitro antiproliferative activity of novel pyrazolo[3,4-d]pyrimidine derivatives” (Medchemcomm, 2015) come the findings set out here.

In one assay the test system is MCF7. Nature of the assay: Cytotoxicity against human MCF7 cells after 72 hrs by SRB assay. The conditions noted are these: MCF7, 72 h. It counts as functional, cell-based. On the technique in general: In SRB staining, fixed cells bind dye roughly in proportion to their protein.
For assay [1], the target named is T1, Vascular endothelial growth factor receptor 2 (Homo sapiens, UniProt P35968). Kind of assay: Inhibition of human VEGFR2 at 10 uM after 20 to 40 mins by liquid scintillation counting analysis in presence of […]. Also on record: scale not given: the % may be the effect or the level left.
T1 sequence (P35968 whole entry): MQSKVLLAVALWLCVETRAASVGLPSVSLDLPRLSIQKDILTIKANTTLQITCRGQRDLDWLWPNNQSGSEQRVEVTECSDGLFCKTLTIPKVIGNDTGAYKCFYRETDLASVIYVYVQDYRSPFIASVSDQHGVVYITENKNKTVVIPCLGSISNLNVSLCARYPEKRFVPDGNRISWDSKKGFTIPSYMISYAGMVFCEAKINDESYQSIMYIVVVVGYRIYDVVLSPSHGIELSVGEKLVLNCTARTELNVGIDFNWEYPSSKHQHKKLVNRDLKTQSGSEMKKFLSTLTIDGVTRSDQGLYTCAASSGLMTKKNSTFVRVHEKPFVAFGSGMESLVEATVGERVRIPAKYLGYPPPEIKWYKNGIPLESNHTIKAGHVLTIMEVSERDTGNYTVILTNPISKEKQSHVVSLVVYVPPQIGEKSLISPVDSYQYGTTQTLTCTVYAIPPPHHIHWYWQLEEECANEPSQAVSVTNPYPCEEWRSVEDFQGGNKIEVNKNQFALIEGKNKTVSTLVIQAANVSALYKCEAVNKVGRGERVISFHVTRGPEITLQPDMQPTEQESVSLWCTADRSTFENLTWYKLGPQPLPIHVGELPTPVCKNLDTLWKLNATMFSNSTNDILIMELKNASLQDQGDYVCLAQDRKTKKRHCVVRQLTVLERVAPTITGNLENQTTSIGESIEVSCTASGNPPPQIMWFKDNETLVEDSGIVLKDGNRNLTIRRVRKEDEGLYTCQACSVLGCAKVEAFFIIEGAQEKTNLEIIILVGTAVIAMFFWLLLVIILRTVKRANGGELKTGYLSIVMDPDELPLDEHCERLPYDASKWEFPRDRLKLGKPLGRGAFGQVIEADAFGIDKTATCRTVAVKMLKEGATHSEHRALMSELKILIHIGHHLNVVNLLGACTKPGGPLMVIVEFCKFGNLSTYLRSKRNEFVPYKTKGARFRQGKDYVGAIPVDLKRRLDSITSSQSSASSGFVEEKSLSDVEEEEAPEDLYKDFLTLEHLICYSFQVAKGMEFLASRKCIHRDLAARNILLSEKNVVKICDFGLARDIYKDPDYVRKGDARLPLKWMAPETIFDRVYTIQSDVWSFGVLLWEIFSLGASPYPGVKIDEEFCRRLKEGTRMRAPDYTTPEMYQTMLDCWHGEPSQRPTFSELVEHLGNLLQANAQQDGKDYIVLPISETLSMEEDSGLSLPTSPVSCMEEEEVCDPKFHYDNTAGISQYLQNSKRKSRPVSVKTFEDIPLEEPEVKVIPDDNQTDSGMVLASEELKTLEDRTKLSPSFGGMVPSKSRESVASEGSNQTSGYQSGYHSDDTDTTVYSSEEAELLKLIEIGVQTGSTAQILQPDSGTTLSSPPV
In assay [2] the target is Epidermal growth factor receptor (Homo sapiens) (UniProt P00533). Kind of assay: Inhibition of human EGFR at 10 uM after 20 to 40 mins by liquid scintillation counting analysis in presence of […].
Chain of Epidermal growth factor receptor (Homo sapiens) (P00533 whole entry): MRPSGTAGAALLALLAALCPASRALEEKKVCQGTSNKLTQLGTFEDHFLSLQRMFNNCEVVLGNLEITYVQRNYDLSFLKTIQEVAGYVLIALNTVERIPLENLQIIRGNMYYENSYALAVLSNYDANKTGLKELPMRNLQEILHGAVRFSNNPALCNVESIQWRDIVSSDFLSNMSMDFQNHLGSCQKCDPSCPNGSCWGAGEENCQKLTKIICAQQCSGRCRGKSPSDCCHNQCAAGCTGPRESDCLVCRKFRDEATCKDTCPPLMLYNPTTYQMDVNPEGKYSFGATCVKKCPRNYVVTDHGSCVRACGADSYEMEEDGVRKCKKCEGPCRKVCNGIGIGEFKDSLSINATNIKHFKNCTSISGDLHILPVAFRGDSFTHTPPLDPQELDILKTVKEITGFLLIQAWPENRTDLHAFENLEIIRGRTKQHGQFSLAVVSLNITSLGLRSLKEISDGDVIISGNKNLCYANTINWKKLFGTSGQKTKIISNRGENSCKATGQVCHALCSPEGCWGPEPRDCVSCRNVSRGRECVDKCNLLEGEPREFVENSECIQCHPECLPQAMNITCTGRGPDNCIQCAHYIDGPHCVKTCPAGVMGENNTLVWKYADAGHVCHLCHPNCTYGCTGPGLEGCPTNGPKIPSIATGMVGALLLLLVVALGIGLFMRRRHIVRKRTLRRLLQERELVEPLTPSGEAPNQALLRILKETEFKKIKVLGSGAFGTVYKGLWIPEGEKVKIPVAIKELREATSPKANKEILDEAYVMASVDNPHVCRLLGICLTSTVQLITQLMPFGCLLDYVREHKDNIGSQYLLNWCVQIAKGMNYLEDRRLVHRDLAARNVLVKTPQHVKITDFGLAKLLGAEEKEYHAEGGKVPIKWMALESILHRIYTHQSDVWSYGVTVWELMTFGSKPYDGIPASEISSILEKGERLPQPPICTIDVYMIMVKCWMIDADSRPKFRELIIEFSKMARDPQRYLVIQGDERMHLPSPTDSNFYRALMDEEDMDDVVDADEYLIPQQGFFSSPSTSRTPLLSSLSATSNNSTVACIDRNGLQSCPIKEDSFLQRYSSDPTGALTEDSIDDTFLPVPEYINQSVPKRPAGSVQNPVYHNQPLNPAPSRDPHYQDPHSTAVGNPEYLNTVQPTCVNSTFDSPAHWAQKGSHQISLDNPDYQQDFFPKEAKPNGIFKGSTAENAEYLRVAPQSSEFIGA
In assay [3] the target is Aurora kinase A (Homo sapiens) (UniProt O14965). Nature of the assay: Inhibition of human aurora A at 10 uM after 20 to 40 mins by liquid scintillation counting analysis in presence of […].
Chain of Aurora kinase A (Homo sapiens) (O14965 whole entry): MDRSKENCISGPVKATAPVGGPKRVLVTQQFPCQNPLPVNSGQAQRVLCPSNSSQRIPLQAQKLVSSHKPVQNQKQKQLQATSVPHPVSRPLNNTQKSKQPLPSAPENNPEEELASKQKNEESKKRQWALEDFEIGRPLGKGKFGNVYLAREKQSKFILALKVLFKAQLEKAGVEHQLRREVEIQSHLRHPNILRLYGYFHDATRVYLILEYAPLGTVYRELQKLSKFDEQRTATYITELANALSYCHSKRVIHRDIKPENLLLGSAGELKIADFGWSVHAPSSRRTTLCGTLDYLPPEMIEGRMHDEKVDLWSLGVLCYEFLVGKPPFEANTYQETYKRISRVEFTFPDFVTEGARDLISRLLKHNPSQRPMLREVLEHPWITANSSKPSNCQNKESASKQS
Assay [4] addresses Mast/stem cell growth factor receptor Kit (Homo sapiens, UniProt P10721). Nature of the assay: Inhibition of N-terminal GST-tagged recombinant kit (unknown origin) using poly(Glu:Tyr) as substrate by ELISA-based method. In general terms: ELISA stands for enzyme-linked immunosorbent assay.
Assay [5] addresses T1, Vascular endothelial growth factor receptor 2. Nature of the assay: Inhibition of VEGFR2 (unknown origin) using poly(Glu:Tyr) as substrate by ELISA-based method.
Assay [6] addresses Receptor-type tyrosine-protein kinase FLT3 (Homo sapiens, UniProt P36888). Kind of assay: Inhibition of Flt3 (unknown origin) using poly(Glu:Tyr) as substrate by ELISA-based method.
In assay [7] the target is T1, Vascular endothelial growth factor receptor 2. Kind of assay: Inhibition of VEGFR2 (unknown origin) autophosphorylation after 2 hrs by cell-based assay.
The next assay concerns the target Aurora kinase A (Homo sapiens, UniProt O14965). Kind of assay: Inhibition of Aurora A (unknown origin) using poly(Glu:Tyr) as substrate by ELISA-based method.
Assay [8] has as its target Cyclin-dependent kinase 1 (Homo sapiens, UniProt P06493). Kind of assay: Inhibition of CDK1 (unknown origin) using […] as substrate after 60 mins by TR-FRET assay. A general note: In TR-FRET formats the signal depends on donor and acceptor labels being close together.
The nature of assay [9]: Cytotoxicity against human HL60 cells. It counts as functional, cell-based. The conditions noted are these: HL-60.
Assay [10] deals with T1, Vascular endothelial growth factor receptor 2. Nature of the assay: Inhibition of VEGFR2 (unknown origin) using poly(Glu,Ala,Tyr) (6:3:1) as substrate after 20 mins by ELISA.

pEC50, pIC50: −log10 of the molar value. Calls of active or inactive are those of the source. No cut-off for these calls is given here.

Chain of Cyclin-dependent kinase 1 (P06493 whole entry): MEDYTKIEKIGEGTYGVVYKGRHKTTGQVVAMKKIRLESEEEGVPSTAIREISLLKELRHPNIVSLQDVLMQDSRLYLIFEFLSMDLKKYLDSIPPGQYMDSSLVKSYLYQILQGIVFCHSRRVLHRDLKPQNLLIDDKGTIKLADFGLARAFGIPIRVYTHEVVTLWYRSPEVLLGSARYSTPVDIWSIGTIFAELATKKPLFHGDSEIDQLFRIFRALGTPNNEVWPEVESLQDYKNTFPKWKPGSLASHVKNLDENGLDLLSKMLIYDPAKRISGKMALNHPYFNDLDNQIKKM
Chain of Aurora kinase A (O14965 whole entry): as the sequence (O14965 whole entry) above
Chain of Mast/stem cell growth factor receptor Kit (P10721 whole entry): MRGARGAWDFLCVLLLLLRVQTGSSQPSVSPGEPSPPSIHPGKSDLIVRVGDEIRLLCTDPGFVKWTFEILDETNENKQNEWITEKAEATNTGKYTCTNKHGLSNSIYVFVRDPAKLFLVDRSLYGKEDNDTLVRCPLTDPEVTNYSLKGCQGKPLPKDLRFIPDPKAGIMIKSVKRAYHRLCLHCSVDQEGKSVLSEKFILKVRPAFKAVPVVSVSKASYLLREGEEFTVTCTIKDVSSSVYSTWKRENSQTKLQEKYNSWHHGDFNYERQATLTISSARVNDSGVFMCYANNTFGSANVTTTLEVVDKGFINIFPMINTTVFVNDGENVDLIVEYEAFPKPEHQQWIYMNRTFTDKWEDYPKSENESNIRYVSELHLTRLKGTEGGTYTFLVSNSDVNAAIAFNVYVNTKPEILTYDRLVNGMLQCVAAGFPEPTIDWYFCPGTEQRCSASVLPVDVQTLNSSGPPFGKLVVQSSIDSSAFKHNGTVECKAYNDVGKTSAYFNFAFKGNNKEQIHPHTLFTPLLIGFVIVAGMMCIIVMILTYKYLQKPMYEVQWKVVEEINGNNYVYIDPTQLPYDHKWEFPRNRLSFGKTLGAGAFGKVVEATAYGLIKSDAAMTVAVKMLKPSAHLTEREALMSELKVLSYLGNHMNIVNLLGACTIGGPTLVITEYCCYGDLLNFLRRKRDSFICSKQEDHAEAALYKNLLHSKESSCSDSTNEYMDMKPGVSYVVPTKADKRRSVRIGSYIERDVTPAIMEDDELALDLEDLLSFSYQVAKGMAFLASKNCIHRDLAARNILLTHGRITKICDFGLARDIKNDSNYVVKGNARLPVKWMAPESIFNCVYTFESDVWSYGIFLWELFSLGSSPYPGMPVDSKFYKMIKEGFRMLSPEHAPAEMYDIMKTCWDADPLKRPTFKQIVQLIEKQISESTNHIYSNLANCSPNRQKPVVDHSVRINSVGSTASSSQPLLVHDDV

What is called pIC50 is the negative decadic logarithm of the IC50, by convention in mol/L. The compound `O=C(Nc1ccc(Nc2ncnc3c2cnn3-c2ccccc2)cc1)Nc1ccccc1Cl` gave a pIC50 with MCF7 of 4.26. Further, in [1], the Activity is -5%.
With `O=c1sc2cc(Nc3ncnc4c3cnn4-c3ccccc3)ccc2n1Cc1ccc(Cl)cc1Cl`, the negative-log IC50 (pIC50) in the assay on MCF7 was 4.36. In addition, the Activity in [1] is -5%.
In the same order, the values of `O=C(Nc1ccc(Nc2ncnc3c2cnn3-c2ccc(Cl)cc2)cc1)Nc1ccccc1Cl` are 5.04 and 1%.
Regarding `O=C(Nc1cccc(Cl)c1)c1ccc(Nc2ncnc3c2cnn3-c2ccccc2)cc1`, the inhibition entry in assay [2] is “inactive”. This compound also gave a negative-log IC50 (pIC50) in the assay on MCF7 of 5.95. In [1], the Activity was 2%.
In turn, `O=c1sc2cc(Nc3ncnc4c3cnn4-c3ccc(Cl)cc3)ccc2n1Cc1ccc(Cl)cc1Cl` showed a negative logarithm of the IC50 (pIC50) with MCF7 of less than 4.00. In addition, the Activity in assay [1] is 1%.
Take `O=C(Nc1ccccc1)Nc1ccc(Oc2ncnc3c2cnn3-c2ccc(Cl)cc2)cc1`: the pIC50 with MCF7 is 4.08. Also, the Activity in [1] was -3%.
In the case of `O=C(Nc1ccc(Nc2ncnc3c2cnn3-c2ccccc2)cc1)Nc1cccc(Cl)c1`, the inhibition result in [3] is “inactive”. The compound also had a pIC50 in the assay with MCF7 of 5.38. Moreover, the Activity in [1] was -3%.
For the compound `O=C(Nc1ccc(OC(F)(F)F)cc1)c1sccc1NCc1ccnc2ccccc12` [OSI-930], the negative logarithm of the IC50 (pIC50) in [4] was 7.10.
In turn, `O=C(Nc1ccc(Nc2ncnc3c2cnn3-c2ccccc2)cc1)Nc1cccc(Br)c1` showed a pIC50 in the assay with MCF7 of 4.44. Moreover, the Activity in assay [1] was -3%.
With `O=C(Nc1ccc(Oc2ncnc3[nH]ncc23)cc1)Nc1ccc(Cl)c(C(F)(F)F)c1`, the negative logarithm of the IC50 (pIC50) in assay [5] was 5.65; in assay [6] it was 8.40.
By pEC50 is commonly meant the EC50 on a negative log10 scale, so that one unit is a factor of ten. As for `Cc1ccc(C(=O)Nc2cccc(C(F)(F)F)c2)cc1Nc1nc(-c2cccnc2)nc2c1cnn2C`, in assay [7], the negative-log EC50 (pEC50) was 5.38.
Regarding `Clc1ccc(COc2ccc(Nc3ncnc4c3cnn4-c3ccc(Cl)cc3)cc2)cc1`, the pIC50 in the assay with MCF7 was less than 4.00.
For `O=C(NC1CCCCC1)c1ccc(Nc2ncnc3c2cnn3-c2ccc(Cl)cc2)cc1`, the pIC50 in the assay with MCF7 is less than 4.00. The Activity in assay [1] was -4%.
On to `O=C(Nc1ccc(Cl)c(C(F)(F)F)c1)c1ccc(Nc2ncnc3c2cnn3-c2ccc(Cl)cc2)cc1`, for which the negative logarithm of the IC50 (pIC50) with MCF7 was 5.31.
As for `O=C(Nc1ccccc1Cl)c1ccc(Nc2ncnc3c2cnn3-c2ccc(Cl)cc2)cc1`, in the assay on MCF7, the pIC50 was less than 4.00. Also, in assay [1], the Activity was -8%.
Consider `Clc1ccc2nc(Nc3ncnc4c3cnn4-c3ccccc3)sc2c1`, for which the negative-log IC50 (pIC50) with MCF7 is less than 4.00.
Same read-out and setting: in the case of `Cc1cc2nc(Nc3ncnc4c3cnn4-c3ccccc3)sc2cc1C` it was less than 4.00.
Compound `O=c1sc2cc(Nc3ncnc4c3cnn4-c3ccccc3)ccc2n1Cc1ccc(Cl)c(Cl)c1` showed a pIC50 in the assay with MCF7 of 5.80. Moreover, the Activity in assay [1] came to 1%.
On to `CC(C)n1ncc2cnc(Nc3cc(C(N)=O)n(C)c3)nc21`, for which the values for the pIC50 (at Aurora kinase A; in [8]) were 7.77 and 7.62, respectively.
As for `O=C(Nc1ccc(Cl)c(C(F)(F)F)c1)c1ccc(Nc2ncnc3c2cnn3-c2ccccc2)cc1`, the pIC50 with MCF7 was 4.12.
Consider `N=c1c2cnn(-c3ccccc3)c2ncn1-c1ccc(-c2ccc(C(F)(F)F)cc2)s1`, for which, in assay [9], the pIC50 is 6.68.
In the assay on MCF7, `Clc1ccc(-n2ncc3c(Nc4nc5ccc(Cl)cc5s4)ncnc32)cc1` gave a pIC50 of 4.07.
`O=c1sc2cc(Nc3ncnc4c3cnn4-c3ccccc3)ccc2n1Cc1cccc(Br)c1`: the pIC50 in the assay on MCF7 is 4.34. The Activity in assay [1] stood at 2%.
As for `Clc1ccc(COc2ccc(Nc3ncnc4c3cnn4-c3ccccc3)cc2)cc1`, the pIC50 in the assay on MCF7 was 5.36.
`O=C(Nc1ccccc1)Nc1ccc(Oc2ncnc3c2cnn3-c2ccccc2)cc1` showed a pIC50 in the assay with MCF7 of less than 4.00. Further, the Activity in assay [1] is 1%.
`Cc1cc(F)c(Nc2ncnc3cc(OCc4ccccc4)ccc23)cc1O` showed a negative-log IC50 (pIC50) in assay [10] greater than 8.70.
In the assay with MCF7, `Cc1ccccc1NC(=O)Nc1ccc(Nc2ncnc3c2cnn3-c2ccc(Cl)cc2)cc1` showed a pIC50 of 5.50. Besides, the Activity in [1] was found to be 3%.
